Test results as given in paper PMC10382589, “In vitro and in vivo antiplasmodial evaluation of sugar-modified nucleoside analogues” (Scientific Reports, 2023).
“Also recorded” adds a separate entry of the source. Where two headings read alike, the source gives them in different places.

Assays:
[1] = tested on: Pf3D7 chloroquine-sensitive strain; test: SYBR green I based fluorescence growth inhibition assay, Pf3D7; format: cell-based, Plasmodium falciparum; details: for inhibition at 1 µM / IC50: Plasmodium falciparum; for inhibition at 1 µM: asynchronous culture, one intraerythrocytic cycle (Fig. S1), read-out: inhibition against Pf3D7 at 1 µM; for growth inhibition against Pf3D7 (in words): screen at 1 µM and 10 µM, vs untreated control (Fig. S1); for IC50: read-out: IC50 (µM) against Pf3D7
Method: Growth of one intraerythrocytic cycle of Pf was monitored after treated with compounds whereas untreated parasites were considered as control.
(§1) The percent growth inhibition of the parasites was evaluated by SYBR Green assay.
(§2) Pf3D7 and PfRKL-9 were cultured by following procedure reported by Trager and Jensen[33]. […] In order to examine the morphological changes in the parasite, a blood film must be prepared. A thin blood film was air-dried, fixed with methanol, and allowed to dry before staining. […] Light microscopy analysis was carried out to evaluate the inhibitory effect of compounds at different concentrations against Pf3D7 and PfRKL-9.
SYBR green I based fluorescence assay was performed to measure the growth inhibition effect of the 26 compounds and further dose dependent assay against Pf3D7, and PfRKL-9 (Indian field strain, source- NIMR, New Delhi, India) was carried out at different concentrations. […] Parasitized erythrocytes were treated with different concentrations of compounds ranging from 1 µM to 10 µM, whereas DMSO worked as a control. Triplicate wells of parasitized erythrocytes treated with compounds were seeded in 96 well microtiter plate following incubation at 37 °C for one cycle of parasite growth. […] Growth inhibition (%) was calculated as follows: % Inhibition = [1 − % Parasitemia (Treatment)/% Parasitemia (Control)] *100. Data were expressed as mean ± SD.

[2] = tested on: chloroquine resistant strain PfRKL-9; test: SYBR green I based fluorescence growth inhibition assay, PfRKL-9; format: cell-based; details: Plasmodium falciparum, synchronized late trophozoite parasites, triplicate, mean ± SD, read-out: IC50 (µM) against PfRKL-9
Method: as §1, §2
SYBR green I based fluorescence assay was performed to measure the growth inhibition effect of the 26 compounds and further dose dependent assay against Pf3D7, and PfRKL-9 (Indian field strain, source- NIMR, New Delhi, India) was carried out at different concentrations. In brief, Pf3D7 and PfRKL-9 parasitized erythrocytes (trophozoite stage with 1% parasitemia) were diluted with noninfected erythrocytes at a constant 2% hematocrit in culture medium. Parasitized erythrocytes were treated with different concentrations of compounds ranging from 1 µM to 10 µM, whereas DMSO worked as a control. Triplicate wells of parasitized erythrocytes treated with compounds were seeded in 96 well microtiter plate following incubation at 37 °C for one cycle of parasite growth. […] Growth inhibition (%) was calculated as follows: % Inhibition = [1 − % Parasitemia (Treatment)/% Parasitemia (Control)] *100. Data were expressed as mean ± SD.

[3] = tested on: Mitochondrial membrane potential of the malaria parasites; test: JC-1 mitochondrial membrane potential assay; format: cell-based, Plasmodium falciparum; details: parasites treated with IC50 concentration for 3 h; untreated control 7.04 ± 1.30
From the text: Mitochondrial membrane potential is a marker of mitochondria’s functional status. Modification in mitochondrial membrane potential leading to mitochondrial dysfunction triggers cell death[25],[26]. Mitochondrial dysfunction was detected by using membrane permeant JC-1 dye. JC-1 is a cationic probe, due to electronegative environment inside the functionally active mitochondria with high Δψm, it aggregates in energised mitochondria and gives red color fluorescence at 590 nm, but in case of low Δψm (depolarized state), JC-1 remain in monomeric form and gives green color fluorescence at […]. Decreased ratio of red/green fluorescence intensity of compound treated sample as compared to untreated control indicates depolarized mitochondrial membrane[27],[28]. The damage to the parasite's mitochondria after treatment with compounds 7, 16, 17, 18 and 1 was measured according to the method reported previously. Because of lipophilic nature of the JC-1, it is cell permeable and emits a green signal (525 nm) in the cytoplasm, but the high transmembrane potential of functional mitochondria causes it to aggregate and emit a red signal (590 nm). […]. Mitochondrial membrane potential of the malaria parasites was determined by using MitoProbe™ JC-1 assay as described previously. In brief, trophozoite stage parasites (10–12% parasitemia) were treated with IC50 concentration of compounds 7, 16, 17, 18 and 1 for 3 h at 37 °C in the CO2 incubator. Samples were washed with 1 × PBS by centrifugation at 500 × g for 2 min at RT. Freshly prepared JC-1 dye was added to each sample with working concentration of 5 µg/mL. Incubation was done for 30 min at 37 °C in a CO2 incubator. Cells were washed twice with 1 × PBS. Spectrofluorometer was used to observe mitochondrial membrane potential by measuring fluoroscence intensities from the parasite lysate at wavelength of excitation (520 nm) and emission (590 nm) respectively. In vivo cell imaging was done with the help of Olympus fluoview 3000 confocal microscopy. Live cell imaging was observed under a 100X objective (oil immersion) and band pass filter at 355–460 nm. Experiments were repeated thrice and only representative figures are shown (Fig. 6).

[4] = tested on: embryonic kidney cell lines, HEK-293; details: human, 48 h
Method: Cytotoxicity against human embryonic kidney cell line (ATCC) was determined using MTT dye[35]. In order to measuring the cytotoxicity of the compounds we used MTT dye to detect live/dead cells. […] cells were stored at 37 °C, 5% CO2 in […] sterile culture flasks (Corning) in complete Dulbecco's Modified Eagle Medium (DMEM) culture medium (a) supplemented with 5% Fetal Bovine Serum (FBS), gentamicin ([…]), with changing the medium thrice a week. The monolayers were washed, counted, diluted in complete medium, distributed in 96-well microtiter plates (5000 cells/well), followed by incubation for another 24 h at 37 °C. The test compounds and DMSO were added in triplicate. After a 48 h incubation at 37 °C, the supernatant was removed and 100 µL of MTT solution in complete DMEM was added to each well, followed by 2 h incubation at 37 °C. The culture plates were read in a spectrophotometer (Tecan infinite M200, nanoquant, UK) with a 490 nm filter, and the cytotoxic concentrations were determined based on a dose response curve.

human RBCs = test: Hemolytic activity on human RBCs; format: cell-based; details: 0.5-20 µM, 10% (v/v) RBC suspension, 1 h, absorbance at 415 nm
Method: Effect of compounds on human RBCs was checked with the help of spectrophotometry by measuring the lysis of human red blood cells (hRBCs). Compounds were tested at 0.5, 1, 5, 10 and 20 μM concentrations with 10% (v/v) RBCs suspension for 1 h and observed the percentage of RBCs lysis by compounds 7, 16, 17, 18 and 1.
Human RBCs were from Rotary Blood Bank, Tughlakabad Institutional Area, New Delhi, India. Effect of compounds on RBCs was checked by hemolytic assay. In brief, RBCs suspension with 10% (v/v) washed with 1 × Phosphate-buffered saline (PBS) (pH 7.4) and again resuspended in 1 × PBS. RBCs suspension was incubated with compounds 7, 16, 17, 18 and 1 at different concentrations (0.5, 1, 5, 10 and 20 μM) for 1 h at 37 °C. Samples were centrifuged and supernatant was taken for absorbance at 415 nm. Triton X-100 with 1% (v/v) was used as a positive control. Experiment was done in triplicate.

[5] = chloroquine-sensitive strain, synchronized late trophozoite parasites, SYBR Green, triplicate, mean ± SD

Compound	inhibition at 1 µM [1] [%]	growth inhibition against Pf3D7 (in words) [1]	other results
CC(=O)OC[C@H]1O[C@@H](SC[C@@H]2[C@@H](O[Si](C)(C)C(C)(C)C)[C@H](n3ccc(=O)[nH]c3=O)O[C@@H]2CO[Si](C)(C)C(C)(C)C)[C@@H](OC(C)=O)[C@@H](OC(C)=O)[C@@H]1OC(C)=O [Compound 15, 1-[3’-Deoxy-3’-C-(-2,3,4,6-tetra-O-acetyl-β-D-mannopyranosyl-sulfanylmethyl)-2’,5’-di-O-(tert-butyldimethylsilyl)-β-D-xylofuranosyl]-uracil]	~50	more moderate growth inhibitory effect	–
CC1(C)O[C@@H]2[C@H](O1)[C@H](CS[C@@H]1O[C@H](CO)[C@@H](O)[C@H](O)[C@H]1O)O[C@H]2n1cnc2c(NC(c3ccccc3)(c3ccccc3)c3ccccc3)ncnc21 [Compound 8, 1-[2’,3’-O-Isopropylidene-5’-S-(β-D-glucopyranosyl)-5’-thio-α-L-lyxofuranosyl]-N-trityl-adenine]	–	did not significantly affect the antimalarial activity	–
Cc1cn([C@@H]2O[C@H](CN3C[C@@H](CN4C[C@@H](COC(c5ccccc5)(c5ccccc5)c5ccccc5)O[C@@H](n5cc(C)c(=O)[nH]c5=O)C4)O[C@@H](n4ccc(=O)[nH]c4=O)C3)[C@H]3OC(C)(C)O[C@H]32)c(=O)[nH]c1=O [Compound 4]	–	good/excellent inhibitory effect	–
CC(=O)O[C@@H]1[C@@H](OC(C)=O)[C@H](SC[C@@H]2[C@@H](O[Si](C)(C)C(C)(C)C)[C@H](n3ccc(=O)[nH]c3=O)O[C@@H]2CO[Si](C)(C)C(C)(C)C)OC[C@H]1OC(C)=O [Compound 17, 1-[3’-Deoxy-3’-C-(-2,3,4-tri-O-acetyl-β-D-xylopyranosyl-sulfanylmethyl)-2’,5’-di-O-(tert-butyldimethylsilyl)-β-D-xylofuranosyl]-uracil]	–	significant growth inhibition in a dose dependent manner	IC50 [1, 5]: 1.33 ± 1.07 µM; IC50 [2]: 1.84 ± 1.06 µM; JC-1 red/green ratio [3]: 6.28 ± 1.55; Cell survival (%) at 500 µM [4]: 51%; lysis of human RBCs (in words) (human RBCs): no significant lysis
COC(=O)[C@H](CSC[C@@H]1[C@@H](O[Si](C)(C)C(C)(C)C)[C@H](n2ccc(=O)[nH]c2=O)O[C@@H]1CO[Si](C)(C)C(C)(C)C)NC(=O)OCC1c2ccccc2-c2ccccc21 [Compound 12, 1-[3’-Deoxy-3’-C-(N-Fmoc-cysteinemethyl ester)thiylmethyl-2’,5’-di-O-(tert-butyldimethylsilyl)-β-D-xylofuranosyl]-uracil]	–	good/excellent inhibitory effect	–
CCN(CC)CCCC(C)Nc1ccnc2cc(Cl)ccc12 (stereo not shown) [chloroquine, reference compound]	–	–	IC50 [1]: 0.025 µM
Nc1ncnc2c1ncn2[C@@H]1O[C@H](CN2C[C@@H](CO)O[C@@H](n3cnc4c(=O)[nH]cnc43)C2)[C@@H](O)[C@H]1O [Compound 5]	–	remarkable actvity	IC50 [1, 5]: 1.34 ± 2.1 µM; IC50 [2]: 6.23 ± 1.5 µM; lysis of human RBCs (in words) (human RBCs): showed cytotoxicity towards human RBCs; also recorded: showed toxicity
COc1ccc(C(OC[C@@H]2CN(C[C@H]3O[C@@H](n4cc(C)c(=O)[nH]c4=O)C[C@@H]3O)C[C@H](n3cc(C)c(=O)[nH]c3=O)O2)(c2ccccc2)c2ccc(OC)cc2)cc1 [Compound 3]	–	remarkable actvity; also recorded: good/excellent inhibitory effect	IC50 [1, 5]: 1.19 ± 1.1 µM; IC50 [2]: 4.5 ± 2.5 µM; lysis of human RBCs (in words) (human RBCs): showed cytotoxicity towards human RBCs; also recorded: showed toxicity
CCCCCCCCCCSC[C@@H]1[C@@H](O[Si](C)(C)C(C)(C)C)[C@H](n2cc(C)c(=O)[nH]c2=O)O[C@@H]1CO[Si](C)(C)C(C)(C)C [Compound 19]	5 to 25	–	–
CC(=O)OC[C@H]1O[C@@H](SC[C@@H]2O[C@@H](n3cnc4c(N)ncnc43)[C@H](O)[C@@H]2O)[C@H](OC(C)=O)[C@@H](OC(C)=O)[C@@H]1OC(C)=O [Compound 9, 1-[5’-S-(2,3,4,6-Tetra-O-acetyl-β-D-glucopyranosyl)-5’-thio-α-L-lyxofuranosyl]-adenine]	–	significant decrease in growth inhibitiory effect	–
CCCSC[C@@H]1[C@@H](O[Si](C)(C)C(C)(C)C)[C@H](n2ccc(=O)[nH]c2=O)O[C@@H]1CO[Si](C)(C)C(C)(C)C [Compound 10]	5 to 25	–	–
CC(C)(C)[Si](C)(C)OC[C@H]1O[C@@H](n2ccc(=O)[nH]c2=O)[C@H](O[Si](C)(C)C(C)(C)C)[C@H]1CSCc1ccc2ccccc2c1 [Compound 11, 1-[3’-Deoxy-3’-C-(2-naphtyl)methylsulfanylmethyl-2’,5’-di-O-(tert-butyldimethylsilyl)-β-D-xylofuranosyl]-uracil]	5 to 25	–	–
CCCCSC[C@H]1[C@@H]2O[Si](C(C)C)(C(C)C)O[Si](C(C)C)(C(C)C)OC[C@H]2O[C@H]1n1ccc(=O)[nH]c1=O [Compound 20, 2’-Deoxy-2’-C-butylsulfanylmethyl-3’,5’-O-(1,1,3,3-tetraisopropyldisiloxane-1,3-diyl)-β-D-arabinofuranosyl-uracil]	–	good/excellent inhibitory effect	–
